The assay has as its target T1, PD-1/PD-L1 (Homo sapiens, UniProt Q9NZQ7).
T1 construct: TVMV protease site linker (C); made in house; host or cells: HEK293T cells
Briefly: PD-1/PD-L1 Homogenous Time-Resolved Fluorescence (HTRF) binding assay. The following applies: PD-L1-His 10 nM, PD-1-Ig 20 nM. Summed up:
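Time-resolved FRET read-out using Eu-cryptate anti-Ig (1 nM final) and APC anti-His (20 nM final). Tagged extracellular domains were used in BSA/Tween-20-supplemented dPBS, with compound pre-incubated 15 min with PD-L1-His (10 nM) before PD-1-Ig (20 nM) was added for 15 min. Other human pairs: PD-L2-His 5 nM with PD-1-Ig 20 nM; PD-L1-Ig 10 nM with CD80-His 100 nM.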

T1 sequence (Q9NZQ7 18-239): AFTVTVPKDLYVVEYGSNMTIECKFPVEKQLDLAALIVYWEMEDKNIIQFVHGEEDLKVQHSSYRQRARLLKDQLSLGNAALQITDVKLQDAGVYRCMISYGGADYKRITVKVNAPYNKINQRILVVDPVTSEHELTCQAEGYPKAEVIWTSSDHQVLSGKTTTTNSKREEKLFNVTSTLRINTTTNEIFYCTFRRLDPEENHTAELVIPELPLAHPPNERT

Compound `Cc1c(COc2cc(OCc3cncc(C#N)c3)c(CN3CCc4cn[nH]c4C3)cc2Cl)cccc1-c1cccc(OCCCN2CC[C@@H](O)C2)c1C` [Example 2569, (R)-5-((4-chloro-5-((3′-(3-(3-hydroxypyrrolidin-1-yl)propoxy)-2,2′-dimethyl-[1,1′-biphenyl]-3-yl)methoxy)-2-((1,4,5,7-tetrahydro-6H-pyrazolo[3,4-c]pyridin-6-yl)methyl)phenoxy)methyl)nicotinonitrile] had a concentration for half-maximal inhibition (IC50) of 5.5 nM.

As for `Cc1n[nH]c(C)c1CNCc1cc(Cl)c(OCc2cccc(-c3cccc(OCCCN4CC[C@@H](O)C4)c3C)c2C)cc1OCc1cncc(C#N)c1` [Example 2570, (R)-5-((4-chloro-2-((((3,5-dimethyl-1H-pyrazol-4-yl)methyl)amino)methyl)-5-((3′-(3-(3-hydroxypyrrolidin-1-yl)propoxy)-2,2′-dimethyl-[1,1′-biphenyl]-3-yl)methoxy)phenoxy)methyl)nicotinonitrile], the 50% inhibitory concentration (IC50) was 1.5 nM.

Compound `CCc1nc(CN(CCOC)Cc2cc(Cl)c(OCc3cccc(-c4cccc(OCCCN5CC[C@@H](O)C5)c4C)c3C)cc2OCc2cncc(C#N)c2)[nH]c1CC` [Example 2571, (R)-5-((4-chloro-2-((((4,5-diethyl-1H-imidazol-2-yl)methyl)(2-methoxyethyl)amino)methyl)-5-((3′-(3-(3-hydroxypyrrolidin-1-yl)propoxy)-2,2′-dimethyl-[1,1′-biphenyl]-3-yl)methoxy)phenoxy)methyl)nicotinonitrile] returned an IC50 of 3.8 nM.

For `Cc1n[nH]c(C)c1CN(C)Cc1cc(Cl)c(OCc2cccc(-c3cccc(OCCCN4CC[C@@H](O)C4)c3C)c2C)cc1OCc1cncc(C#N)c1` [Example 2572, (R)-5-((4-chloro-2-((((3,5-dimethyl-1H-pyrazol-4-yl)methyl)(methyl)amino)methyl)-5-((3′-(3-(3-hydroxypyrrolidin-1-yl)propoxy)-2,2′-dimethyl-[1,1′-biphenyl]-3-yl)methoxy)phenoxy)methyl)nicotinonitrile], the IC50 was 3.3 nM. The IC50 values of the last two compounds are within 1.5-fold of each other.

`Cc1cc(CNCc2cc(Cl)c(OCc3cccc(-c4cccc(OCC5CCCN(C)C5)c4Cl)c3C)cc2OCc2cncc(C#N)c2)no1` (stereo not drawn) [Example 2575, 5-((4-chloro-5-((2′-chloro-2-methyl-3′-((1-methylpiperidin-3-yl)methoxy)-[1,1′-biphenyl]-3-yl)methoxy)-2-((((5-methylisoxazol-3-yl)methyl)amino)methyl)phenoxy)methyl)nicotinonitrile] had an IC50 of 2.8 nM.

Compound `Cc1c(COc2cc(OCc3cncc(C#N)c3)c(CNCc3cncs3)cc2Cl)cccc1-c1cccc(OCC2CCCN(C)C2)c1Cl` (stereo not drawn) [Example 2576, 5-((4-chloro-5-((2′-chloro-2-methyl-3′-((1-methylpiperidin-3-yl)methoxy)-[1,1′-biphenyl]-3-yl)methoxy)-2-(((thiazol-5-ylmethyl)amino)methyl)phenoxy)methyl)nicotinonitrile] yielded a half-inhibitory concentration (IC50) of 2.5 nM.

Regarding `Cc1c(COc2cc(OCc3cncc(C#N)c3)c(CNCc3ncc[nH]3)cc2Cl)cccc1-c1cccc(OCC2CCCN(C)C2)c1Cl` (stereo not drawn) [Example 2577, 5-((2-((((1H-imidazol-2-yl)methyl)amino)methyl)-4-chloro-5-((2′-chloro-2-methyl-3′-((1-methylpiperidin-3-yl)methoxy)-[1,1′-biphenyl]-3-yl)methoxy)phenoxy)methyl)nicotinonitrile], the IC50 was 1.6 nM.

As for `Cc1c(COc2cc(OCc3cncc(C#N)c3)c(CNCc3ncn[nH]3)cc2Cl)cccc1-c1cccc(OCC2CCCN(C)C2)c1Cl` (stereo not drawn) [Example 2578, 5-((2-((((1H-1,2,4-triazol-5-yl)methyl)amino)methyl)-4-chloro-5-((2′-chloro-2-methyl-3′-((1-methylpiperidin-3-yl)methoxy)-[1,1′-biphenyl]-3-yl)methoxy)phenoxy)methyl)nicotinonitrile], the half-inhibitory concentration (IC50) is 1.9 nM. The IC50 values of the last two compounds are within 1.5-fold of each other.

Regarding `Cc1c(COc2cc(OCc3cncc(C#N)c3)c(CNCCc3ncn[nH]3)cc2Cl)cccc1-c1cccc(OCC2CCCN(C)C2)c1Cl` (stereo not drawn) [Example 2579, 5-((2-(((2-(1H-1,2,4-triazol-5-yl)ethyl)amino)methyl)-4-chloro-5-((2′-chloro-2-methyl-3′-((1-methylpiperidin-3-yl)methoxy)-[1,1′-biphenyl]-3-yl)methoxy)phenoxy)methyl)nicotinonitrile], the IC50 was determined as 0.5 nM. Against the preceding compound, the IC50 is about 3.8-fold lower.

Compound `Cc1c(COc2cc(OCc3cncc(C#N)c3)c(CNCCc3c[nH]cn3)cc2Cl)cccc1-c1cccc(OCC2CCCN(C)C2)c1Cl` (stereo not drawn) [Example 2580, 5-((2-(((2-(1H-imidazol-4-yl)ethyl)amino)methyl)-4-chloro-5-((2′-chloro-2-methyl-3′-((1-methylpiperidin-3-yl)methoxy)-[1,1′-biphenyl]-3-yl)methoxy)phenoxy)methyl)nicotinonitrile] gave an IC50 of 0.2 nM.

The compound `Cc1c(COc2cc(OCc3cncc(C#N)c3)c(CN(C)Cc3cn[nH]c3)cc2Cl)cccc1-c1cccc(OCC2CCCN(C)C2)c1Cl` (stereo not drawn) [Example 2581, 5-((2-((((1H-pyrazol-4-yl)methyl)(methyl)amino)methyl)-4-chloro-5-((2′-chloro-2-methyl-3′-((1-methylpiperidin-3-yl)methoxy)-[1,1′-biphenyl]-3-yl)methoxy)phenoxy)methyl)nicotinonitrile] came in with a half-maximal inhibitory concentration (IC50) of 3.4 nM.

`Cc1c(COc2cc(OCc3cncc(C#N)c3)c(CNCCc3cc[nH]n3)cc2Cl)cccc1-c1cccc(OCC2CCCN(C)C2)c1Cl` (stereo not drawn) [Example 2582, 5-((2-(((2-(1H-pyrazol-3-yl)ethyl)amino)methyl)-4-chloro-5-((2′-chloro-2-methyl-3′-((1-methylpiperidin-3-yl)methoxy)-[1,1′-biphenyl]-3-yl)methoxy)phenoxy)methyl)nicotinonitrile] came in with an IC50 of 3.7 nM.

The compound `Cc1c(COc2cc(OCc3cncc(C#N)c3)c(CN3CCc4[nH]cnc4C3)cc2Cl)cccc1-c1cccc(OCC2CCCN(C)C2)c1Cl` (stereo not drawn) [Example 2583, 5-((4-chloro-5-((2′-chloro-2-methyl-3′-((1-methylpiperidin-3-yl)methoxy)-[1,1′-biphenyl]-3-yl)methoxy)-2-((1,4,6,7-tetrahydro-5H-imidazo[4,5-c]pyridin-5-yl)methyl)phenoxy)methyl)nicotinonitrile] had a half-inhibitory concentration (IC50) of 2.3 nM. This IC50 is about 1.6-fold lower than that of the compound before.

In turn, `Cc1c(COc2cc(OCc3cncc(C#N)c3)c(CNCc3cncnc3)cc2Cl)cccc1-c1cccc(OCC2CCCN(C)C2)c1Cl` (stereo not drawn) [Example 2584, 5-((4-chloro-5-((2′-chloro-2-methyl-3′-((1-methylpiperidin-3-yl)methoxy)-[1,1′-biphenyl]-3-yl)methoxy)-2-(((pyrimidin-5-ylmethyl)amino)methyl)phenoxy)methyl)nicotinonitrile] had an IC50 of 2.6 nM.

`Cc1c(COc2cc(OCc3cncc(C#N)c3)c(CNCc3nccs3)cc2Cl)cccc1-c1cccc(OCC2CCCN(C)C2)c1Cl` (stereo not drawn) [Example 2585, 5-((4-chloro-5-((2′-chloro-2-methyl-3′-((1-methylpiperidin-3-yl)methoxy)-[1,1′-biphenyl]-3-yl)methoxy)-2-(((thiazol-2-ylmethyl)amino)methyl)phenoxy)methyl)nicotinonitrile]: the IC50 stood at 2.8 nM. The IC50 values of the last two compounds are within 1.5-fold of each other.

Compound `Cc1c(COc2cc(OCc3cncc(C#N)c3)c(CNCc3csc(N)n3)cc2Cl)cccc1-c1cccc(OCC2CCCN(C)C2)c1Cl` (stereo not drawn) [Example 2586, 5-((2-((((2-aminothiazol-4-yl)methyl)amino)methyl)-4-chloro-5-((2′-chloro-2-methyl-3′-((1-methylpiperidin-3-yl)methoxy)-[1,1′-biphenyl]-3-yl)methoxy)phenoxy)methyl)nicotinonitrile] had an IC50 of 0.7 nM.

`Cc1c(COc2cc(OCc3cncc(C#N)c3)c(CN3CCc4[nH]ncc4C3)cc2Cl)cccc1-c1cccc(OCC2CCCN(C)C2)c1Cl` (stereo not drawn) [Example 2587, 5-((4-chloro-5-((2′-chloro-2-methyl-3′-((1-methylpiperidin-3-yl)methoxy)-[1,1′-biphenyl]-3-yl)methoxy)-2-((1,4,6,7-tetrahydro-5H-pyrazolo[4,3-c]pyridin-5-yl)methyl)phenoxy)methyl)nicotinonitrile] showed an IC50 of 0.9 nM.

The compound `Cc1c(COc2cc(OCc3cncc(C#N)c3)c(CNCc3cc[nH]n3)cc2Cl)cccc1-c1cccc(OCC2CCCN(C)C2)c1Cl` (stereo not drawn) [Example 2588, 5-((2-((((1H-pyrazol-3-yl)methyl)amino)methyl)-4-chloro-5-((2′-chloro-2-methyl-3′-((1-methylpiperidin-3-yl)methoxy)-[1,1′-biphenyl]-3-yl)methoxy)phenoxy)methyl)nicotinonitrile] showed a half-maximal inhibitory concentration (IC50) of 2 nM. Against the preceding compound, the IC50 is about 2.2-fold higher.

With `Cc1c(COc2cc(OCc3cncc(C#N)c3)c(CN3CCc4cn[nH]c4C3)cc2Cl)cccc1-c1cccc(OCC2CCCN(C)C2)c1Cl` (stereo not drawn) [Example 2589, 5-((4-chloro-5-((2′-chloro-2-methyl-3′-((1-methylpiperidin-3-yl)methoxy)-[1,1′-biphenyl]-3-yl)methoxy)-2-((1,4,5,7-tetrahydro-6H-pyrazolo[3,4-c]pyridin-6-yl)methyl)phenoxy)methyl)nicotinonitrile], the IC50 turned out to be 7.9 nM.

As to `Cc1c(COc2cc(OCc3cncc(C#N)c3)c(CNCc3ncco3)cc2Cl)cccc1-c1cccc(OCC2CCCN(C)C2)c1Cl` (stereo not drawn) [Example 2590, 5-((4-chloro-5-((2′-chloro-2-methyl-3′-((1-methylpiperidin-3-yl)methoxy)-[1,1′-biphenyl]-3-yl)methoxy)-2-(((oxazol-2-ylmethyl)amino)methyl)phenoxy)methyl)nicotinonitrile], the IC50 was 2 nM.

Regarding `Cc1c(COc2cc(OCc3cncc(C#N)c3)c(CNCc3cnco3)cc2Cl)cccc1-c1cccc(OCC2CCCN(C)C2)c1Cl` (stereo not drawn) [Example 2591, 5-((4-chloro-5-((2′-chloro-2-methyl-3′-((1-methylpiperidin-3-yl)methoxy)-[1,1′-biphenyl]-3-yl)methoxy)-2-(((oxazol-5-ylmethyl)amino)methyl)phenoxy)methyl)nicotinonitrile], the IC50 worked out at 1.9 nM.

The values above are taken from patent US20240124417A1, “COMPOUNDS USEFUL AS IMMUNOMODULATORS” (Bristol-Myers Squibb Company, priority 2019, published 2024).
